One block for each compound: values may come before it.
Legend:
[1] = target: full-length human recombinant EYA3 (Homo sapiens (Human), UniProt Q99504); assay: pNPP phosphatase assay, full-length EYA3; type: biochemical
Description: The catalytic domain of mouse Eya3 (“ED”, comprising residues 223-510 of Eya3) was purified as described by Rayapureddi, J. P. et al. (FEBS Lett 580, 3853-3859 (2006), incorporated by reference in its entirety). For full-length Eya3 (“hEYA3”), human Eya3 isoform 2 (representing the major species identified in human cell lines by mass spectrometry, expressed as residues 127-573 of NM_001990, isoform 1) was sub-cloned into pDEST565 to express a poly-histidine-Glutathione-S-transferase (His-GST) tagged fusion protein with a TVMV protease site. The protein was purified by glutathione-S-transferase affinity chromatography followed by TVMV cleavage, Ni-NTA chromatography, and finally size exclusion chromatography.
(§1) Screening Methods. An inhibitory assay was conducted using the previously described p-nitrophenylphosphate assay (Rayapureddi, J. P. et al. Nature 426, 295-298 (2003)). Briefly, ED was incubated in a reaction mixture containing 20 mM MES pH 6, 2 mM MgCl2, 125 μM inhibitor, 3.4 mM para-nitrophenol phosphate (pNPP) and 0.01 μg/μL enzyme.
The compounds were then tested using full-length human recombinant, purified EYA3 and pNPP as a substrate. Compounds were dissolved in DMSO and diluted as needed. […] Reactions were incubated at 30° C. for 30 minutes and quenched with 100 mM EDTA pH 10. IC50 values were then calculated directly from regression curves using PRISM software. […]

[2] = target: PTP1B (Homo sapiens (Human), UniProt P18031); assay: PTP1B-catalyzed pNPP hydrolysis; type: biochemical; conditions: EYA3 vs PTP1B
Chain of PTP1B (P18031 whole entry, species assumed, the tested form may be a part): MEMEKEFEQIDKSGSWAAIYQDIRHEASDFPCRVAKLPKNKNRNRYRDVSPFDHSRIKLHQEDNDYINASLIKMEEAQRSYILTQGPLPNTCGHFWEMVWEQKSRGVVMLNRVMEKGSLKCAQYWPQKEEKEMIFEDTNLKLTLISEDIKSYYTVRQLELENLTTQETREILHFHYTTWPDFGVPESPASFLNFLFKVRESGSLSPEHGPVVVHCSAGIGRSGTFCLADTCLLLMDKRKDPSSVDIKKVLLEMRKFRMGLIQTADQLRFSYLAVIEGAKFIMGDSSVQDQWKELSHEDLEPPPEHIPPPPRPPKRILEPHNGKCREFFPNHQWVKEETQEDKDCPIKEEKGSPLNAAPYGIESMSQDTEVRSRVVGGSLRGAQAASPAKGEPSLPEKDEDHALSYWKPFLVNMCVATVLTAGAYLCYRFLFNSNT
Experimental: The catalytic domain of human Eya2 (“hEYA2(ED)”) was similarly sub-cloned as a polyhistidine fusion construct in the vector pDEST-527. Fusion protein was purified by NiNTA chromatography and followed by size-exclusion chromatography over a Superdex-75 column. The relative purity of protein samples was determined using SDS-PAGE. PTP1B was purified as described previously (Rayapureddi, J. P. et al. Nature 426, 295-298 (2003), incorporated by reference in its entirety).
as §1
PTP1B is a classical Cys-based tyrosine phosphatase.

[3] = target: EYA3-SIX2 interaction (Homo sapiens (Human), UniProt Q99504); assay: His-SIX2 pull-down of EYA3 on Ni-NTA; type: binding; conditions: 50 μM, 15 minutes
Chain of EYA3-SIX2 interaction (Q99504 whole entry, looked up, stated change not applied): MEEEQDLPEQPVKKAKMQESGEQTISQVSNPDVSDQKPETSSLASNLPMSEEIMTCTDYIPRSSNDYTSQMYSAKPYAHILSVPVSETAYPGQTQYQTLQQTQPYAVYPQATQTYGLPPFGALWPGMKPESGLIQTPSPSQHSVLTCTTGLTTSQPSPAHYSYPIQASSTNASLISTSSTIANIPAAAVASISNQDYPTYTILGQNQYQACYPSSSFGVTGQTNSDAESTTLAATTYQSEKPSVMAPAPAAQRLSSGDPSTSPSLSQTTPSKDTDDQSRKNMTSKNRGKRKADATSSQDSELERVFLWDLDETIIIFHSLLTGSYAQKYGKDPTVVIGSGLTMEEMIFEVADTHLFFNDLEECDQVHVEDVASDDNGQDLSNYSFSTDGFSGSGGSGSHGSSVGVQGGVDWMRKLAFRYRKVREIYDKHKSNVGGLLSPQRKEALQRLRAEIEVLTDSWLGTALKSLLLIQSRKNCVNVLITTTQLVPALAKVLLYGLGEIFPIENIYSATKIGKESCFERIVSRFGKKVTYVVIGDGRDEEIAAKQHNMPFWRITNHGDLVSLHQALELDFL
Chain of EYA3-SIX2 interaction (Q9NPC8 whole entry partner, looked up): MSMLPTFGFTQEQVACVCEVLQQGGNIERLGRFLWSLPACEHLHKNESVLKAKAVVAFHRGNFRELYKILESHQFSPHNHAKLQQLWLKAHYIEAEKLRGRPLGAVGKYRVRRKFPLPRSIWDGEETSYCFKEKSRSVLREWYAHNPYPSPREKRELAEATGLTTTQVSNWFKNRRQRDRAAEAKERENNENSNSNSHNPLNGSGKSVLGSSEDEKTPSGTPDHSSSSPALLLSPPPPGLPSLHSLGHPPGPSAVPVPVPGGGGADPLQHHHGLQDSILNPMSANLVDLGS
Description: Each point represents the mean and standard deviation of two independent readings. (C) Plots of Vmax and Km as a function of inhibitor concentration. […] The mixture was loaded on a Ni-NTA column. Beads were washed with 3 column volumes of load buffer (last washes, lanes 2 and 6). Proteins retained on the beads are shown in lanes 3 and 7. Lanes 4 and 8 are molecular weight markers.
One function of the catalytic domain of the EYAs is to mediate its interaction with the SIX proteins. This complex then translocates to the nucleus where the SIX-EYA complex can activate transcription.

[4] = test system: MCF10A-EYA2 cells; assay: Transwell migration of MCF10A-EYA2 cells; type: cell-based; conditions: for migration of MCF10A(EYA2) cells: 7.5 μM
Description: The tyrosine phosphatase activity of Eya3 and Eya2 promotes single cell motility in breast cancer cells (Pandey, R. N. et al. Oncogene (2010) 29:3715-3722, incorporated by reference in its entirety). EYA2 is over-expressed in breast cancers and is associated with increased metastasis and a poorer outcome (Farabaugh, et al. Oncogene (2011) 259). […] Overexpression of EYA2, but not the tyrosine-phosphatase dead mutant, promoted cell motility (FIG. 2a). […] This effect was dose-dependent (FIG. 2d) and compound (1a) was able to reduce cell motility by over 50% at the lowest concentration (1 μM) tested.
In order to determine whether EYA3 knock down would affect cell migration, a modified Boyden chamber assay was used to measure HUVEC migration. Briefly, human umbilical vein endothelial cells (HUVECs) were purchased from Lonza (Walkersville, Md.) and maintained in the endothelial cell growth medium (PromoCell, Heidelberg, Germany), under a 5% CO2 atmosphere. MCF10A cells from ATCC were stably transfected with either pcDNA 3.2N5-DEST (vector control), V5-EYA2 or V5-EYA2(D250N). Transwell migration experiments were performed as previously described (Pandey, R. N. et al. Oncogene 29, 3715-3722, (2010)).

[5] = test system: HUVECs; assay: HUVEC proliferation (MTT); type: cell-based, human; conditions: 5 μM, 24 hours
[6] = test system: HUVECs; assay: HUVEC tubulogenesis on matrigel; type: cell-based, human; conditions: 7.5 μM (highest concentration tested)
Experimental: The EYA inhibitors were also tested in tubulogenesis assays. The tubulogenesis assays were performed in 15-well micro-slide (ibidi LLC, Verona Wis.), using growth factor-reduced matrigel (BD Bioscience, Billerica, Mass.). The matrix was prepared by loading 10 μl of matrigel in each micro-slide well and allowing it to solidify for 30 minutes at 37° C. HUVECs were trypsinized and resuspended at 100,000 cell/ml in EBM+2.5% FBS. 50 μl (5,000 cell) were loaded on top of the solidified matrigel and the preparation was incubated for 20 hours at 37° C. in a humidified incubator in a 5% CO2 atmosphere. Bright field images were taken using an inverted microscope at 2.5× magnification, which allowed imaging of the whole well in two pictures that were later merged in Photoshop. Tubular structures were traced and counted using NeuroJ (NIH, USA). In experiments with inhibitor, the inhibitor was added to the cell suspension before loading. Each sample was loaded in triplicate, and each treatment was repeated for reproducibility.

[7] = test system: mouse aortic rings; assay: Aortic ring sprouting angiogenesis assay; type: cell-based; conditions: 5 μM, 10 days, VEGF-stimulated
Experimental: Endothelial cell migration can also be studied ex vivo using the aortic ring assay in which sprouting angiogenesis is monitored by the formation of vascular sprouts outside the wall of mouse aortic rings incubated in collagen matrix and stimulated by VEGF (Gerhardt, H., et al. EXS, 3-15 (2005), hereby incorporated by reference in its entirety). Briefly, mice were obtained from the Cincinnati Children's veterinary service and handled according to the institutional animal care and use protocol. […] Mice were 4 to 6 weeks old female C57BL16, and aortic ring explants were cultured at 37° C. in a humidified incubator under a 5% CO2 atmosphere.
Each inhibitor was serially diluted (between 0.25 mM and 7.5 mM) to stocks of 1000× the working concentrations in sterile 100% DMSO in order to achieve an equal final concentration of DMSO (0.1% v/v) in all culture conditions. For the experiments, the compounds were diluted in EBM containing 2.5% FBS, penicillin/streptomycin and 20 ng/ml VEGF165 (R&D Systems, Minneapolis, Minn.). Each compound was applied from the first day of culture over a 10-day period with medium change every two days. In all experiments, the vehicle (DMSO, 0.1%) was used as control. The sprouting density was derived from counting the number of branches per ring, and the extent of angiogenic sprouting was estimated by measuring the total surface area covered by the vessels as illustrated in FIG. 7.

[8] = test system: developing zebrafish vasculature; assay: Zebrafish model of angiogenesis; type: in vivo; conditions: for defects in the developing vasculature / number of intersegmental vessels: varying doses; for defects in the developing vasculature: exposure from 5.25 hpf, analysis at 24 hpf
Experimental: Embryos (FLK1-GFP trangenic) were maintained in fish water until the 50% epiboly stage (5.25 hpf) and were transferred into wells of 24-well plate containing the inhibitors in fish water. The analysis for vascular defects was performed after the 24 hpf stage, and embryos were imaged using a fluorescence microscope.
Transgenic fish expressing EGFP in endothelial cells (Tg(flk1:EGFP)) were used to facilitate visualization of the developing vasculature. In control experiments embryos were treated with 0.1% DMSO (vehicle). At the time of analyses (24 hpf) developing vessels normally migrated from the lateral plate mesoderm to the midline and formed the vascular cord, subsequently forming the dorsal aorta and the posterior cardinal vein and followed by the formation of intersegmental vessels at designated branch points (FIG. 6b).

[9] = test system: retinal neovascularization; assay: Mouse model of oxygen-induced retinopathy; type: in vivo; conditions: 100 or 50 pmoles injected at P12, analyzed at P16
Description: The mouse model of oxygen-induced retinopathy mimics the retinopathy characteristic of proliferative retiopathy conditions such as retinopathy of prematurity and diabetic retinopathy. […] The resulting retinal hypoxia after day 12, when pups were brought back to 20% O2, induced excessive hypoxia-driven angiogenesis. A characteristic large avascular area at the center of the retina and excessive regrowth of superficial vessels (pre-retinal neovascular tufts) in the mid-peripheral region was observed. […] In contrast, inhibition of either Vegf or Vegfr2 in OIR experiments suppresses both neovascular tuft formation and revascularization.

[10] = test system: A673 (Ewings sarcoma) cells; assay: Mouse xenograft model of Ewings sarcoma; type: in vivo; conditions: A673 xenograft in nude mice
Experimental: The affect of EYA inhibitors on a mouse xenograft model of Ewings sarcoma was tested. 5×10^6 A673 (Ewings sarcoma) cells in 0.1 ml sterile matrigel were injected subcutaneously into the dorsal flank region of nude mice. Approximately 5 days after injection, the tumors were about 100-300 mm^3. […] The dose for intra-peritoneal injections was 25 mg/kg/day. The tumor size was monitored every other day. Animals were sacrificed after 2 weeks, or when tumor volume approached 10% of animal weight.

[11] = test system: retinal vasculature; assay: Post-natal retinal angiogenesis in mice; type: in vivo, mouse; conditions: 100 μM injected into eyes at P0.5 and P3, P5 retinas
Experimental: Next, retinal blood vessel density and angiogenic extension were studied using induced deletion of Eya3 in mice by PDGFB-icreERT2 starting at the day of birth. Isolectin labeled retinal blood vessels at postnatal day 5 in control Eya3fl/fl (FIGS. 8b and 8d) and experimental Eya3fl/fl; PDGFB-icreERT2 (FIGS. […]) mice. FIGS. 8d and 8e are magnified images of the regions indicated in 8b and 8c, respectively.
Next, treatment with an inhibitor of Eya3 was performed to test the effect on post-natal retinal angiogenesis. Briefly, 100 μM of compound 1a was injected into the eyes of post-natal mice, at P0.5 and P3. P5 retinas were then analyzed for effects on the retinal vasculature.

Chain of full-length human recombinant EYA3 (Q99504 127-573): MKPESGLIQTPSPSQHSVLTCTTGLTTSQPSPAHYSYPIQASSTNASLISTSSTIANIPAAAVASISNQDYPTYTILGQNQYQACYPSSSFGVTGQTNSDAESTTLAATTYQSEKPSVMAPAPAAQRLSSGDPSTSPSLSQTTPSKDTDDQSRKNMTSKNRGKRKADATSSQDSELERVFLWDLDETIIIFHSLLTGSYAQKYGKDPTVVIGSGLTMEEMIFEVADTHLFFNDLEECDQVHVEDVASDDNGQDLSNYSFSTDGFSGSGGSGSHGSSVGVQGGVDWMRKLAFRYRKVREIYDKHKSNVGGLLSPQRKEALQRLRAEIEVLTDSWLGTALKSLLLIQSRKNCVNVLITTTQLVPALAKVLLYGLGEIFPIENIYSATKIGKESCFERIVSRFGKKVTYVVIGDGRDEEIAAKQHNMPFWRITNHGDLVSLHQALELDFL

mode of inhibition of EYA3 (substrate titration) ([1]; increasing substrate concentration): not a competitive inhibitor
greater activity towards EYA3 than PTP1B [2]: 4.7-6.5 fold
EYA3-SIX2 interaction in presence of inhibitor [3]: unaffected
Compound: CCc1oc2ccccc2c1C(=O)c1cc(Br)c(O)c(Br)c1 [Compound 1, Benzbromarone, reference compound]
Vmax and Km as a function of inhibitor concentration [1]: both values decrease with increased inhibitor concentration
migration of MCF10A(EYA2) cells [4]: significantly inhibited cell migration
HUVEC cell proliferation [5]: no effect on cell proliferation
inhibition of tubulogenesis [6]: effective
aortic ring sprouting [7]: shorter sprouts and significantly lower microvascular density
intersegmental vessels ([8]; 0.25 μM (lowest dose tested)): significant reduction of intersegmental vessels
defects in the developing vasculature [8]: Dose-dependent defects in the developing vasculature
formation of neovascular tufts [9]: Significant reduction in the formation of neovascular tufts
tumor growth [10]: able to reduce tumor growth

greater activity towards EYA3 than PTP1B [2]: over 100 fold
Compound: CCc1oc2ccccc2c1C(=O)c1ccc(O)cc1 [Compound 1a]
reduction of cell motility ([4]; 1 μM (lowest concentration tested)): over 50%
migration of MCF10A(EYA2) cells [4]: significantly inhibited cell migration
HUVEC cell proliferation [5]: no effect on cell proliferation
aortic ring sprouting [7]: shorter sprouts and significantly lower microvascular density
number of intersegmental vessels [8]: reduced the number of intersegmental vessels, but were less potent
defects in the developing vasculature [8]: Dose-dependent defects in the developing vasculature
retinal vascular branch points [11]: quantifiable decrease in branch points
formation of neovascular tufts [9]: Significant reduction in the formation of neovascular tufts

greater activity towards EYA3 than PTP1B [2]: 4.7-6.5 fold
Compound: CCCCc1oc2ccccc2c1C(=O)c1ccc(O)cc1 [Compound 1b]
migration of MCF10A(EYA2) cells [4]: significantly inhibited cell migration
HUVEC cell proliferation [5]: no effect on cell proliferation
inhibition of tubulogenesis [6]: effective
aortic ring sprouting [7]: shorter sprouts and significantly lower microvascular density
number of intersegmental vessels [8]: reduced the number of intersegmental vessels, but were less potent
defects in the developing vasculature [8]: Dose-dependent defects in the developing vasculature
formation of neovascular tufts [9]: Significant reduction in the formation of neovascular tufts
